These results are taken from patent publication US10188634B2, “3-(3H-imidazo[4,5-C]pyridin-2-yl)-1 H-pyrazolo[4,3-B]pyridines and therapeutic uses thereof” (Samumed, LLC, priority 2015, dated 2019).

Common to all, as to assay type: cell-based
One assay concerns IL-6 in THP-1 cells. The assay can be described thus: Inhibition of IL-6 in LPS-stimulated THP-1 human monocyte cells (HTRF). The following applies: IL-6 HTRF; for EC50: 500 ng/mL LPS, 22 hours; for inhibition at 10 µM: LPS, read-out: percent inhibition in brackets (given for EC50 >10 μM). Here is the method: Human Monocyte Cell Culture: Human monocyte cell line (THP-1 cells; Catalog # TIB-202, ATCC, Manassas, Va.) were cultured in Roswell Park Memorial Institute (RPMI) 1640 Medium (Catalog #21870-100, Buffalo, N.Y.) with 1% L-glutamine, 1% HEPES, 1% Sodium Pyruvate, 2% Sodium Bicarbonate supplemented with 100 units/mL penicillin, 50 μg/mL streptomycin, 2-mercaptoethanol (0.05 mM) [basal medium] and 10% fetal bovine serum (Catalog #16140089, Life Technologies, Carlsbad, Calif.) at 37° C. and 5% CO2.
Compound Screening: THP-1 cells were cultured in basal media with 1% FBS for 24 hours before the start of the assay. Each compound was dissolved in DMSO as a 10 mM stock and used to prepare compound source plates. Serial dilution (1:3, 10-point dose-response curves starting from 10 μM) and compound transfer was performed using the ECHO 550 (Labcyte, Sunnyvale, Calif.) into 384-well white low volume assay plates (Greiner Bio-One) with appropriate DMSO backfill for a final DMSO concentration of 0.1%. THP-1 cells were plated at 5000 cells/well in the 384-well plates and incubated at 37° C. for 2 h. 500 ng/mL of LPS was added after 2 hours and cells were incubated for another 22 hours at 37° C. Plates were spun in a centrifuge for 1 minute at […] and a mixture of anti-IL6 XL665, and anti-IL6 Cryptate diluted in reconstitution buffer (Cisbio Inc.) was added to each well. Following incubation for 3 hrs at room temperature, Homogeneous Time-Resolved Fluorescence (HTRF) was measured using the Envision (Perkin Elmer) at 665 nm and […]. The ratio of fluorescence at 665 nm to 620 nm was used as a readout for IL6 quantification. All samples were processed in duplicate. Readings were normalized to DMSO treated cells and normalized activities were utilized for EC50 calculations using the dose-response log (inhibitor) vs. response -variable slope (four parameters) nonlinear regression feature available in GraphPad Prism 5.0 (or Dotmatics). For EC50 of >10 μM, the percent inhibition at 10 μM is provided.

Assay [1] deals with Wnt activity (Sp5-Luc reporter, human Sp5 promoter with eight TCF/LEF binding sites) in SW480 colon carcinoma cells. The assay can be described thus: Screening assay for Wnt activity: Sp5-Luc reporter gene assay in SW480 cells. The following applies: 10-point dose-response starting from 10 μM, overnight incubation. The text has this: The screening assay for Wnt activity is described as follows. Reporter cell lines can be generated by stably transducing cancer cell lines (e.g., colon cancer) or primary cells (e.g., IEC-6 intestinal cells) with a lentiviral construct that includes a Wnt-responsive promoter driving expression of the firefly luciferase gene.
SW480 colon carcinoma cells were transduced with a lentiviral vector expressing luciferase with a human Sp5 promoter consisting of a sequence of eight TCF/LEF binding sites. SW480 cells stably expressing the Sp5-Luc reporter gene and a hygromycin resistance gene were selected by treatment with 150 μg/mL of hygromycin for 7 days. These stably transduced SW480 cells were expanded in cell culture and used for all further screening activities. Each compound was dissolved in DMSO as a 10 mM stock and used to prepare compound source plates. Serial dilution (1:3, 10-point dose-response curves starting from 10 μM) and compound transfer was performed using the ECHO 550 (Labcyte, Sunnyvale, Calif.) into 384-well white solid bottom assay plates (Greiner Bio-One) with appropriate DMSO backfill for a final DMSO concentration of 0.1%. For Sp5-Luc reporter gene assays, the cells were plated at 4,000 cells/well in 384-well plates with medium containing 1% fetal bovine serum and incubated overnight at 37° C. and 5% CO2. Following incubation, 20 μl of BrightGlo luminescence reagent (Promega) was added to each well of the 384-well assay plates. The plates were placed on an orbital shaker for 2 min and then luminescence was quantified using the Envision (Perkin Elmer) plate reader. Readings were normalized to DMSO only treated cells, and normalized activities were utilized for EC50 calculations using the dose-response log (inhibitor) vs. response -variable slope (four parameters) nonlinear regression feature available in GraphPad Prism 5.0 (or Dotmatics). For EC50 of >10 μM, the percent inhibition at 10 μM is provided.

A further assay has as its system SW480 colon cancer cells. The assay can be described thus: Cell viability assay (CellTiter-Blue) in SW480 colon cancer cells. The settings on record: Homo sapiens, 96 h, four days incubation, CellTiter-Blue cell viability. Here is the method:
Representative compounds were screened using the following assay procedure to assess the effect on cell viability as described below.
Each compound was dissolved in DMSO as a 10 mM stock and used to prepare compound source plates. Serial dilution (1:3, 8-point dose-response curves from 10 μM to 0.004 μM) and compound transfer was performed using the ECHO 550 (Labcyte, Sunnyvale, Calif.) into 96-well clear bottom, black-walled plates (Corning-Costar).
Approximately 2×10^3 SW480 colon cancer cells were seeded into each well and allowed to incubate in the presence or absence of compound for four days at 37° C./5% CO2. Eight replicates of DMSO-treated cells served as controls and cells treated with compound were performed in duplicate.
After incubation, 20 μL of CellTiter-Blue (Promega) was added to each well allowed to incubate for approximately 3 hours. This reagent was a buffered solution which contains resazurin, metabolically active cells were able to reduce rezarurin (blue) into resorufin (pink) which was highly fluorescent. This measured fluorescence was used as a readout for cell viability.
After incubation, the plates were read at Ex 560 nm Em 590 nm (Cytation 3, BioTek). Dose-response curves were generated and EC50 concentration values were calculated using non-linear regression curve fit in the GraphPad Prism (San Diego, Calif.) or Dotmatics' Studies Software (Bishops Stortford, UK). For EC50 of >10 μM, the percent inhibition at 10 μM is provided.

Assay [2] relates to LL29 cells (primary human fibroblasts derived from IPF patients) treated with TGF-β1, α-smooth muscle actin. The assay can be described thus: Inhibition of the fibrotic process: αSMA staining in TGF-β1 treated primary human fibroblasts from IPF patients (LL29 cells). The following applies: Fibroblast, 96 h; for EC50: LL29 cells treated with TGF-β1 (20 ng/mL), 4 days. From the text:
Representative compounds were screened using primary human fibroblasts (derived from IPF patients) treated with TGF-β1 to determine their ability to inhibit the fibrotic process.
Human Fibroblast Cell Culture: Primary human fibroblasts derived from IPF patients (LL29 cells) [^1Xiaoqiu Liu, et.al., “Fibrotic Lung Fibroblasts Show Blunted Inhibition by cAMP Due to Deficient cAMP Response Element-Binding Protein Phosphorylation”, Journal of Pharmacology and Experimental Therapeutics (2005), 315(2), 678-687; ^2Watts, K. L., et.al., “RhoA signaling modulates cyclin D1 expression in human lung fibroblasts; implications for idiopathic pulmonary fibrosis”, Respiratory Research (2006), 7(1), 88] were obtained from American Type Culture Collection (ATCC) and expanded in F12 medium supplemented with 15% Fetal Bovine Serum and Penicillin/Streptomycin.
Compound Screening: Each compound was dissolved in DMSO as a 10 mM stock and used to prepare compound source plates. […] LL29 cells are plated at 1,500 cells/well in 80 μL/well F12 medium supplemented with 1% Fetal Bovine Serum. One hour after addition of the cells, TGF-β1 (Peprotech; 20 ng/mL) was added to the plates to induce fibrosis (ref. 1 and 2 above). Wells treated with TGF-β1 and containing DMSO were used as controls. Cells were incubated at 37° C. and 5% CO2 for 4 days. Following incubation for 4 days, SYTOX green nucleic acid stain (Life Technologies [Thermo Fisher Scientific]) was added to the wells at a final concentration of 1 μM and incubated at room temperature for 30 min. Cells were then fixed using 4% formaldehyde (Electron Microscopy Sciences), washed 3 times with PBS followed by blocking and permeabilization using 3% Bovine Serum Albumin (BSA; Sigma) and 0.3% Triton X-100 (Sigma) in PBS. Cells were then stained with antibody specific to α-smooth muscle actin (αSMA; Abcam) (ref. 1 and 2 above) in 3% Bovine Serum Albumin (BSA; Sigma) and 0.3% Triton X-100 (Sigma) in PBS, and incubated overnight at 4° C. Cells were then washed 3 times with PBS, followed by incubation with Alexa Flor-647 conjugated secondary antibody (Life Technologies [Thermo Fisher Scientific]) and DAPI at room temperature for 1 hour. Cells were then washed 3 times with PBS and plates were sealed for imaging. αSMA staining was imaged by excitation at 630 nm and emission at 665 nm and quantified using the Compartmental Analysis program on the CellInsight CX5 (Thermo Scientific). Dead or apoptotic cells were excluded from analysis based on positive SYTOX green staining. % of total cells positive for αSMA were counted in each well and normalized to the average of 11 wells treated with TGF-β1 on the same plate using Dotmatics' Studies Software. The normalized averages (fold change over untreated) of 3 replicate wells for each compound concentration were used to create dose-responses curves and EC50 values were calculated using non-linear regression curve fit in the Dotmatics' Studies Software. For EC50 of >10 μM, the percent inhibition at 10 μM is provided.

`CN(C)CCNc1cc(F)cc(-c2cncc3[nH]c(-c4n[nH]c5ccc(-c6cnccn6)nc45)nc23)c1` [Compound 748, N^1-(3-Fluoro-5-(2-(5-(pyrazin-2-yl)-1H-pyrazolo[4,3-b]pyridin-3-yl)-3H-imidazo[4,5-c]pyridin-7-yl)phenyl)-N^2,N^2-dimethylethane-1,2-diamine]: the EC50 is 4230 nM in the assay on IL-6 in THP-1 cells, 3950 nM in assay [1], 3740 nM in the assay on SW480 colon cancer cells and more than 10000 nM in assay [2]. Moreover, the inhibition at 10 µM in assay [2] (LL29 cells treated with TGF-β1, 4 days, at 10 μM, read-out: percent inhibition in brackets (given for EC50 >10 μM)) is 41.3%.

Turning to `COc1cncc(-c2ccc3[nH]nc(-c4nc5c(N6CCCCC6)cncc5[nH]4)c3n2)c1` [Compound 584, 5-(5-Methoxylpyridin-3-yl)-3-(7-(piperidin-1-yl)-3H-imidazo[4,5-c]pyridin-2-yl)-1H-pyrazolo[4,3-b]pyridine], the EC50 in the assay on IL-6 in THP-1 cells turned out to be 44 nM; in assay [1], 3390 nM; with SW480 colon cancer cells it was 2180 nM; in assay [2] it was 1650 nM.

As to `CN(C)CCNc1cc(F)cc(-c2cncc3[nH]c(-c4n[nH]c5ccc(-c6ccccn6)nc45)nc23)c1` [Compound 448, N^1-(3-Fluoro-5-(2-(5-(pyridin-2-yl)-1H-pyrazolo[4,3-b]pyridin-3-yl)-3H-imidazo[4,5-c]pyridin-7-yl)phenyl)-N^2,N^2-dimethylethane-1,2-diamine], the EC50 in the assay on IL-6 in THP-1 cells is 1680 nM; in assay [1], 1710 nM; with SW480 colon cancer cells, 2140 nM; in assay [2] it was 941 nM.

As for `Fc1ccccc1-c1cncc2[nH]c(-c3n[nH]c4ccc(-c5cncc(CNCC6CCCC6)c5)nc34)nc12` [Compound 81, 1-Cyclopentyl-N-((5-(3-(7-(2-fluorophenyl)-3H-imidazo[4,5-c]pyridin-2-yl)-1H-pyrazolo[4,3-b]pyridin-5-yl)pyridin-3-yl)methyl)methanamine], the concentration giving a half-maximal response (EC50) in the assay on IL-6 in THP-1 cells came out at 3530 nM; in assay [1] it was 1260 nM; in the assay with SW480 colon cancer cells, 1390 nM; in assay [2], 1940 nM.

For `CN1CCN(c2cncc3[nH]c(-c4n[nH]c5ccc(-c6cncc(OC7CCCCC7)c6)nc45)nc23)CC1` [Compound 611, 5-(5-(Cyclohexyloxy)pyridin-3-yl)-3-(7-(4-methylpiperazin-1-yl)-3H-imidazo[4,5-c]pyridin-2-yl)-1H-pyrazolo[4,3-b]pyridine], the concentration giving a half-maximal response (EC50) in the assay on IL-6 in THP-1 cells came out at 8780 nM; in assay [1] it was 1920 nM; in the assay with SW480 colon cancer cells, 2540 nM; in assay [2] it was 1330 nM.

Regarding `CN1CCN(c2cncc3[nH]c(-c4n[nH]c5ccc(-c6cncc(OCc7ccccc7)c6)nc45)nc23)CC1` [Compound 618, 5-(5-(Benzyloxy)pyridin-3-yl)-3-(7-(4-methylpiperazin-1-yl)-3H-imidazo[4,5-c]pyridin-2-yl)-1H-pyrazolo[4,3-b]pyridine], the 50% effective concentration (EC50) with IL-6 in THP-1 cells turned out to be 1600 nM; in assay [1], 4630 nM; in the assay on SW480 colon cancer cells it was 4600 nM; in assay [2] it was 1900 nM.

For `Fc1cccc(-c2cncc3[nH]c(-c4n[nH]c5ccc(-c6cncc(OCCN7CCCC7)c6)nc45)nc23)c1` [Compound 486, 3-(7-(3-Fluorophenyl)-3H-imidazo[4,5-c]pyridin-2-yl)-5-(5-(2-(pyrrolidin-1-yl)ethoxy)pyridin-3-yl)-1H-pyrazolo[4,3-b]pyridine], the concentration giving a half-maximal response (EC50) with IL-6 in THP-1 cells is more than 10000 nM; in assay [1], 3430 nM; with SW480 colon cancer cells, 9340 nM; in assay [2], 2120 nM. For the same compound, the inhibition at 10 µM in the assay on IL-6 in THP-1 cells amounted to 47.4%.

With `CN(C)CCNc1cc(F)cc(-c2cncc3[nH]c(-c4n[nH]c5ccc(-c6cncc(CNCC7CCCC7)c6)nc45)nc23)c1` [Compound 445, N^1-(3-(2-(5-(5-(((Cyclopentylmethyl)amino)methyl)pyridin-3-yl)-1H-pyrazolo[4,3-b]pyridin-3-yl)-3H-imidazo[4,5-c]pyridin-7-yl)-5-fluorophenyl)-N^2,N^2-dimethylethane-1,2-diamine], the concentration giving a half-maximal response (EC50) was more than 10000 nM in the assay on IL-6 in THP-1 cells, 9280 nM in assay [1], 8710 nM in the assay with SW480 colon cancer cells and 4020 nM in assay [2]. The inhibition at 10 µM in the assay on IL-6 in THP-1 cells came to 45.8%.
